Legend:
[1] = target: T1, Phosphopantetheine adenylyltransferase (Escherichia coli (strain K12), UniProt P0A6I6); assay: High-Throughput Screening Assay (Forward Direction Assay)
Description: (§1) PPAT screening assay (forward-direction assay) were performed in clear 384 well plates containing in each well either 1-uL DMSO, 1 uL of variable concentrations of test compounds solvated in DMSO or 1 uL of a 100-uM solution of a dipeptide inhibitor of PPAT in DMSO which serves as the fully inhibit control.

[2] = target: Phosphopantetheine adenylyltransferase (Enterococcus faecalis (strain ATCC 700802 / V583), UniProt Q831P9); assay: as above
Description: as §1

[3] = target: T1, Phosphopantetheine adenylyltransferase; assay: Reverse PPAT Assay
Description: The reverse assay was performed in polyproplene 96-well plates containing in each well either 1 uL DMSO, 1 µL of variable concentrations of test compounds solvated in DMSO or 1 µL of a 100-uM solution of a dipeptide inhibitor of PPAT in DMSO which serves as control.

T1 sequence (P0A6I6 whole entry): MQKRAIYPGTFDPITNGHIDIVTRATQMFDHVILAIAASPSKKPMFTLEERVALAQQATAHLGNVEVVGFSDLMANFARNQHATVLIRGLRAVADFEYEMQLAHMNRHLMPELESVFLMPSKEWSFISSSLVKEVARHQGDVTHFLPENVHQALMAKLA
Sequence of Phosphopantetheine adenylyltransferase (Enterococcus faecalis (strain ATCC 700802 / V583), UniProt Q831P9) (Q831P9 whole entry): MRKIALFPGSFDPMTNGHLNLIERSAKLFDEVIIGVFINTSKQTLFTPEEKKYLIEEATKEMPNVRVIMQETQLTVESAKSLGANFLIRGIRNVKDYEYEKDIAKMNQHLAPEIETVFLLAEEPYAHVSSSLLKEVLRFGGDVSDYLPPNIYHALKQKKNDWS

Compound	IC50 [1]	IC50 [2]	IC50 [3]
O=C(O)c1cc2nc3ccc(F)cc3c(=O)n2[nH]1 [7-substituted pyrazoloquinolone, 9]	103 µM	> 167 µM	
O=C(O)c1cc2nc3ccc(Br)cc3c(=O)n2[nH]1 [7-substituted pyrazoloquinolone, 10]	6.2 µM	209 µM	22 µM
O=C(O)c1cc2nc3ccc(I)cc3c(=O)n2[nH]1 [7-substituted pyrazoloquinolone, 11]	5.1 µM	> 137 µM	11 µM
Cn1c2ccc(Cl)cc2c(=O)n2nc(C(=O)O)cc12 [4-substituted pyrazoloquinolone, 18]	160 µM		
O=C(O)c1cc2nc3cc(Br)ccc3c(=O)n2[nH]1 [6-substituted pyrazoloquinolone, 22]	124 µM	> 167 µM	> 125 µM
O=C(O)c1cc2nc3ccc(Cl)cc3c(=O)n2[nH]1 [7-substituted pyrazoloquinolone, 8]	17 µM	> 75 µM	
COc1ccc2nc3cc(C(=O)O)[nH]n3c(=O)c2c1 [7-substituted pyrazoloquinolone, 17]	> 150 µM	> 167 µM	
CN(C)c1ccc2nc3cc(C(=O)O)[nH]n3c(=O)c2c1 [7-substituted pyrazoloquinolone, 16]	49 µM	157 µM	7.1 µM
Cc1c(C(=O)O)[nH]n2c(=O)c3ccc(Cl)cc3nc12 [3-substituted pyrazoloquinolone, 24]	106 µM	> 167 µM	
Cc1ccc2nc3cc(C(=O)O)[nH]n3c(=O)c2c1 [7-substituted pyrazoloquinolone, 7]	244 µM		
O=C(O)c1cc2nc3cc(C(F)(F)F)ccc3c(=O)n2[nH]1 [6-substituted pyrazoloquinolone, 20]	54 µM	> 167 µM	200 µM
CSc1ccc2nc3cc(C(=O)O)[nH]n3c(=O)c2c1 [7-substituted pyrazoloquinolone, 12]	13 µM	> 65 µM	8.8 µM
O=C(O)c1cc2nc3ccccc3c(=O)n2[nH]1 [7-substituted pyrazoloquinolone, 6]	253 µM	> 167 µM	> 230 µM
Cc1ccc2c(=O)n3[nH]c(C(=O)O)cc3nc2c1 [6-substituted pyrazoloquinolone, 19]	15 µM	> 167 µM	
O=C(O)c1cc2nc3cc(Cl)ccc3c(=O)n2[nH]1 [6-substituted pyrazoloquinolone, 23]	49 µM	212 µM	93 µM
C[S+]([O-])c1ccc2nc3cc(C(=O)O)[nH]n3c(=O)c2c1 (centres undefined) [7-substituted pyrazoloquinolone, 13]	166 µM	20 µM	
CS(=O)(=O)c1ccc2nc3cc(C(=O)O)[nH]n3c(=O)c2c1 [7-substituted pyrazoloquinolone, 14]	92 µM		
CC(C)Sc1ccc2nc3cc(C(=O)O)[nH]n3c(=O)c2c1 [7-substituted pyrazoloquinolone, 15]	14 µM	249 µM	5 µM
Nc1ccc2c(=O)n3[nH]c(C(=O)O)cc3nc2c1 [6-substituted pyrazoloquinolone, 21]	121 µM	100 µM	

— BindingDB's records for doi:10.1111/j.1747-0285.2010.00957.x (Pfizer, 2010)
